From patent US20060099568A1, “Signals and molecular species involved in senescence” (priority 2002, published 2006)

How the values were obtained:
Assay type in all cases: cell-based, human
[1] = tested on: adenylyl cyclases (ACs); assay: measurement of adenylyl cyclase activity in membranes of LPA-treated cells; conditions: 30 μg/ml LPA
Procedure: Subconfluent presenescent (passage 8, Pa 8) and near-senescent (passage 24, Pa 24) fibroblasts were serum-starved for 2 days and treated with 30 μg/ml LPA for the indicated times. The activities of adenylyl cyclase (A) and phosphodiesterase (B) were determined in the fresh membranes and total cell lysates as described in Materials and Methods. The enzyme activities were calculated as pmol/μg/min. The data represents an average of triplicate experiments.
Cells seeded in a 10-cm culture plate were serum-starved and treated with LPA as described in the figure legends. Cells were harvested and homogenized in ice-cold homogenization buffer containing 0.25 M sucrose, 10 mM Tris-HCl, pH 7.5, 10 mM MgCl2, 2 mM EGTA, and protease inhibitors. Homogenates were centrifuged at 20,000×g at 4° C. for 20 min. Pellets were washed twice with the above buffer, resuspended in 10 mM Tris-HCl, pH 7.4, and 10 MM MgCl2, and the adenylyl cyclase assays were performed as described previously (Jang et al. 2001). The membrane proteins (15 μg/ml) were incubated for 10 min at 30° C. in a reaction mixture (100 μl) containing 40 mM Tris, pH 7.4, 0.2 mM EGTA, 100 mM NaCl, 10 mM MgCl2, 0.5 mM ATP, 5 μg/ml phosphocreatine, 5 IU/ml creatine phosphokinase, 10 μM GTP, and 0.5 mM IBMX. The reaction was stopped by adding 2.5 M perchloric acid. The amount of cAMP generated was determined by cAMP binding assay.

[2] = tested on: cellular cAMP; assay: measurement of cyclic AMP accumulation (cAMP binding assay)
Procedure: FIG. 9 represents LPA-induced alteration of cellular cAMP content in presenescent and near-senescent fibroblasts. Subconfluent presenescent (passage 8, Pa 8) and near-senescent (passage 24, Pa 24) fibroblasts were serum-starved for 2 days and treated with LPA: A, 1-70 μg/ml LPA for 30 min; B, 30 μg/ml LPA for the indicated times. The level of cAMP in the acid extracts was measured by cAMP binding assay. The data represents an average of triplicate experiments.
Subconfluent near-senescent (passage 26, Pa 26) fibroblasts were serum-starved for 2 days and treated with 30 μg/ml LPA for the indicated times in the absence or presence of 10 μM PKC inhibitor bisindolylmaleiamide (bIM). The level of cAMP in the acid extracts was measured by cAMP binding assay. The data represents an average of triplicate experiments.
Cells grown on a 12 well-plate were serum-starved by incubating with SFM for 2 days. After the cells were equilibrated in the fresh SFM medium for 1 hour, they were treated with LPA as described in the figure. The reaction was terminated by removing the medium and by adding 2.5 M perchloric acid. The acid extract was stored at −20° C. until use. The acid extract was neutralized with 4.2 M KOH and the cAMP content was determined by competitive binding with [^3H]cAMP to the cAMP binding protein, RIα of cAMP-dependent protein kinase, as described by Jang and Juhnn (2001). After the extraction, cells were lyzed with 0.1 N NaOH and analyzed for protein content using the Bradford protein assay reagent. The cAMP content was normalized to the amount of acid-insoluble protein.

[3] = tested on: phospholipase D (PLD); assay: phosphatidylbutanol formation as an indication of phospholipase D activity; conditions: passage 24 near-senescent cells vs presenescent; 0.5% 1-butanol, 20 min
Procedure: Subconfluent presenescent (passage 8: Pa 8) and near-senescent (passage 24: Pa 24) cells were serum-starved and labeled with [^3H]myristic acid overnight. […] A representative experiment of three performed in duplicate is presented.
Quiescent cells were labeled overnight with [^3H]myristic acid (1 μCi/ml) and then washed with PBS. Phosphatidylbutanol formation was measured as described by Yeo et al. (1994). Cells were preincubated with 0.5% (v/v) 1-butanol for 15 min and then treated with agonists for 20 min in the presence of 0.5% 1-butanol. Total lipids were extracted and separated by thin layer chromatography. The band of phosphatidylbutanol was scraped off the plates and its radioactivity was counted in a liquid scintillation cocktail.

[4] = tested on: CREB; assay: CREB phosphorylation, Western blot with anti-phospho-CREB antibody; conditions: near-senescent fibroblasts; 30 μg/ml LPA
Procedure: FIG. 10 represents LPA-dependent PKA activity and CREB phosphorylation in presenescent and near-senescent fibroblasts. Subconfluent presenescent (passage 8, Pa 8) and near-senescent (passage 24, Pa 24) fibroblasts were serum-starved for 2 days and treated with 30 μg/ml LPA for the indicated times. The PKA activity (A) was determined in cell homogenates with kemptide and [γ^32P]ATP as substrates. The radioactivity incorporated into kemptide was measured by a beta-counter and the enzyme activity was calculated as pmol/min/mg protein. The data represents an average of triplicate experiments. The level of phospho-CREB (B) was measured by Western blot analysis using an anti-phospho-CREB antibody.
The expression levels of signaling proteins were examined by Western blot analysis, as described previously (Yeo et al., 2000a). […] The protein concentrations of the lysates were determined using a BCA protein assay kit, as described by the protocol supplied by the manufacturer. […] To examine the level of phospholipase D 1/2, the immunoprecipitated protein obtained using 10 μl of anti-phospholipase D 1 anti-sera (Box45, ESTP4) was analyzed by Western blot against polyclonal anti-phospholipase D 1 antibodies (1:20 dilution of NC STP4 anti-serum).

[5] = tested on: PKC; assay: PKC activation (aggregation and translocation of PKC-α, confocal microscopy); conditions: near-senescent cells (passage 29); 30 μg/ml LPA
Procedure: FIG. 16 represents PKC activation by LPA in presenescent and near-senescent human diploid fibroblasts. Subconfluent presenescent (passage 10, Pa 10) and near-senescent (passage 29, Pa 29) fibroblasts were serum-starved for 2 days and treated with 30 μg/ml LPA for the indicated times. PKC activation was indicated by aggregation and translocation of PKC proteins into the plasma membrane. PKC-α was detected under a confocal microscopy system with polyclonal anti-PKC-α antibodies and FITC-conjugated secondary antibodies.

lysophosphatidic acid [LPA] was tested, and the “total AC activity” value ([1]; near-senescent cells) was “increased”, the “total AC activity” value ([1]; presenescent cells) was “reduced time-dependently” and the “increase of cellular cAMP content” value ([2]; near-senescent fibroblasts, 30 μg/ml LPA for 60 min) was 70-80%. The “increase of cellular cAMP” value ([2]; near-senescent fibroblasts, 30 min, LPA 1-70 μg/ml) was 31-77%, the “decrease of cellular cAMP” value ([2]; presenescent fibroblasts, 30 min, LPA 1-70 μg/ml) was 33-43% and the “reduction of PLD activity” value [3] was “ca. 20%”. The CREB phosphorylation [4] was “correlated well with cAMP accumulation” and the PKC activation [5] was “further increase in PKC activation”.
